Laboratory results from ChEMBL document CHEMBL1201862, “PubChem BioAssay data set” (2004).
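Cells were grown in 96-well plates and exposed to each compound for 48 hours at five concentrations; endpoints were interpolated linearly between bracketing concentrations, or set to the highest concentration if not reached. GI50 marks 50% less growth.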 The source made the active and inactive calls. Rule as the data show it: active = GI50 up to about 1.1 µM and inactive = higher.

Columns and labels:
Experiment in all cases: DTP human tumour cell line panel, 48 h
786-0 = tested on: 786-0
CCRF-CEM = tested on: CCRF-CEM
EKVX = tested on: EKVX
HL-60 = tested on: HL-60
HOP-92 = tested on: HOP-92
IGROV-1 = tested on: IGROV-1
LOX IMVI = tested on: LOX IMVI
M14 = tested on: M14
MDA-MB-435 = tested on: MDA-MB-435
MOLT-4 = tested on: MOLT-4
NCI-H460 = tested on: NCI-H460
RPMI-8226 = tested on: RPMI-8226
SF-268 = tested on: SF-268
SF-295 = tested on: SF-295
SN12C = tested on: SN12C
UACC-257 = tested on: UACC-257
UACC-62 = tested on: UACC-62

Row | SMILES | GI50 (786-0) | GI50 (CCRF-CEM) | GI50 (EKVX) | GI50 (HL-60) | GI50 (HOP-92) | GI50 (IGROV-1) | GI50 (LOX IMVI) | GI50 (M14) | GI50 (MDA-MB-435) | GI50 (MOLT-4) | GI50 (NCI-H460) | GI50 (RPMI-8226) | GI50 (SF-268) | GI50 (SF-295) | GI50 (SN12C) | GI50 (UACC-257) | GI50 (UACC-62)
1 | CN(CCCN1CCCC1)CCCN(C)C(=O)Cc1ccc(Cl)c(Cl)c1 | 13.4 µM (inactive) | 6.85 µM (inactive) | 24.1 µM (inactive) | 15.7 µM (inactive) | 8.63 µM (inactive) | 23.9 µM (inactive) | 12.7 µM (inactive) | 5.47 µM (inactive) | 3.04 µM (inactive) | 13.2 µM (inactive) | 16.3 µM (inactive) | 4.61 µM (inactive) | 8.87 µM (inactive) | 17.7 µM (inactive) | 21 µM (inactive) | 2.55 µM (inactive) | 2.36 µM (inactive)
2 | CC(Cc1ccc(O)cn1)(NC(=O)c1ccccc1)C(=O)O (centres undefined) | > 100 µM (inactive) | > 100 µM (inactive) | > 100 µM (inactive) | > 100 µM (inactive) | 74 µM (inactive) | > 100 µM (inactive) | > 100 µM (inactive) | > 100 µM (inactive) | > 100 µM (inactive) | > 100 µM (inactive) | > 100 µM (inactive) | > 100 µM (inactive) | > 100 µM (inactive) | > 100 µM (inactive) | – | > 100 µM (inactive) | > 100 µM (inactive)
3 | COc1cccc2c1C(=O)c1c(O)c3c(c(O)c1C2=O)C[C@@](O)(C(=O)CO)C[C@@H]3OC1CC2C(OCN3CN2COC2C(C)OC(O[C@H]4C[C@](O)(C(=O)CO)Cc5c(O)c6c(c(O)c54)C(=O)c4c(OC)cccc4C6=O)CC23)C(C)O1 (some centres undefined) | 0.02 µM (active) | 0.00916 µM (active) | 0.203 µM (active) | 0.0258 µM (active) | 0.0308 µM (active) | 0.0266 µM (active) | 0.0134 µM (active) | 0.0861 µM (active) | 0.0891 µM (active) | 0.00269 µM (active) | 0.00433 µM (active) | 0.0184 µM (active) | 0.0319 µM (active) | 0.0498 µM (active) | 0.0231 µM (active) | 0.05 µM (active) | 0.0345 µM (active)
4 | CC(C)(C)C1CC[C@H](O)[C@H]([C@@H](O)CC2CC(=O)N(c3ccccc3)C(=O)C2)C1 (some centres undefined) | > 100 µM (inactive) | 51.9 µM (inactive) | 70 µM (inactive) | 28.1 µM (inactive) | 23.3 µM (inactive) | > 100 µM (inactive) | 49.3 µM (inactive) | 43.8 µM (inactive) | 55.2 µM (inactive) | 38.9 µM (inactive) | 44.2 µM (inactive) | 46.2 µM (inactive) | > 100 µM (inactive) | > 100 µM (inactive) | > 100 µM (inactive) | 89.9 µM (inactive) | 26.6 µM (inactive)
5 | CCc1[nH]nc(C(N)=O)c1/N=N/N(C)C | 89.7 µM (inactive) | 28.2 µM (inactive) | 57.5 µM (inactive) | 9.62 µM (inactive) | 36.4 µM (inactive) | 34.8 µM (inactive) | 43.2 µM (inactive) | > 100 µM (inactive) | 64.6 µM (inactive) | 6.46 µM (inactive) | – | 81.5 µM (inactive) | 47.2 µM (inactive) | 39.7 µM (inactive) | 44 µM (inactive) | > 100 µM (inactive) | 34.4 µM (inactive)
6 | O=C(NCCCCN(CCCNC(=O)C(F)(F)F)Cc1ccc2ccccc2c1)C(F)(F)F | 15.6 µM (inactive) | > 10 µM (inactive) | 16.4 µM (inactive) | 65.2 µM (inactive) | 16.7 µM (inactive) | 17.2 µM (inactive) | 14.1 µM (inactive) | 16.7 µM (inactive) | 19.3 µM (inactive) | 24.2 µM (inactive) | 16.4 µM (inactive) | > 10 µM (inactive) | 16 µM (inactive) | 16.7 µM (inactive) | 16.1 µM (inactive) | 17.5 µM (inactive) | 19.1 µM (inactive)
7 | Cc1coc2c1C(=O)C(=O)c1c-2ccc2c1CCCC2(C)C [TANSHINONE IIA] | 1.87 µM (inactive) | 7.52 µM (inactive) | 30.3 µM (inactive) | 1.07 µM (active) | > 70.5 µM (inactive) | 2.04 µM (inactive) | 0.342 µM (active) | 1.06 µM (active) | 1.48 µM (inactive) | 3.18 µM (inactive) | 1.17 µM (inactive) | 1.94 µM (inactive) | 3.53 µM (inactive) | 2.48 µM (inactive) | 3.7 µM (inactive) | 0.771 µM (active) | 1.63 µM (inactive)
8 | O=C1/C(=C\c2cccc(Oc3ccccc3)c2)SC(c2ccccc2)N1c1ccccc1Cl (centres undefined) | 25.6 µM (inactive) | 6.87 µM (inactive) | 28.8 µM (inactive) | 30.2 µM (inactive) | 14.6 µM (inactive) | – | 22.2 µM (inactive) | 30.8 µM (inactive) | 23.3 µM (inactive) | 34.8 µM (inactive) | 29.6 µM (inactive) | 13 µM (inactive) | 33 µM (inactive) | 33.8 µM (inactive) | 26 µM (inactive) | 24.5 µM (inactive) | 25.5 µM (inactive)
9 | O=C(Cc1ccccc1)N/N=C(/CCN1CCCC1)CC(c1ccccc1)c1c(O)c2ccccc2oc1=O (centres undefined) | > 100 µM (inactive) | 48.9 µM (inactive) | > 100 µM (inactive) | 39.8 µM (inactive) | 31.6 µM (inactive) | > 100 µM (inactive) | 17.3 µM (inactive) | > 100 µM (inactive) | > 100 µM (inactive) | 46.6 µM (inactive) | – | 39.7 µM (inactive) | > 100 µM (inactive) | – | – | 37.2 µM (inactive) | 63.7 µM (inactive)
10 | CN(C)CC1CCC/C(=C\c2ccc(Cl)c(Cl)c2)C1=O (centres undefined) | 1.75 µM (inactive) | 0.843 µM (active) | 10.8 µM (inactive) | 1.97 µM (inactive) | 4.38 µM (inactive) | 3.56 µM (inactive) | – | 3.83 µM (inactive) | 6.38 µM (inactive) | 1.44 µM (inactive) | 9.2 µM (inactive) | 0.205 µM (active) | 4.04 µM (inactive) | 12.4 µM (inactive) | 3.42 µM (inactive) | 7.71 µM (inactive) | 3.61 µM (inactive)
11 | CC(C)C1=CC23CCC4C(C)(C(=O)O)CCCC4(C)C2CC1C1C(=O)N(c2ccccc2N2C(=O)C4C5CC6C7(C)CCCC(C)(C(=O)O)C7CCC6(C=C5C(C)C)C4C2=O)C(=O)C13 (centres undefined) | 14.4 µM (inactive) | 4.39 µM (inactive) | 3.64 µM (inactive) | 6.38 µM (inactive) | 17.9 µM (inactive) | – | – | 5.24 µM (inactive) | 3.63 µM (inactive) | 2.85 µM (inactive) | – | 7.64 µM (inactive) | 3.09 µM (inactive) | – | 9.06 µM (inactive) | – | –
12 | O=S(=O)(N/C(=N\O)Nc1ccc(Cl)cc1)c1cc(C(F)(F)F)cc(C(F)(F)F)c1 | 19.3 µM (inactive) | 40.7 µM (inactive) | 16.6 µM (inactive) | 24.3 µM (inactive) | 16.2 µM (inactive) | 16.9 µM (inactive) | 18.5 µM (inactive) | 17.4 µM (inactive) | 20.3 µM (inactive) | 19 µM (inactive) | 26.4 µM (inactive) | – | 21.6 µM (inactive) | 18.3 µM (inactive) | 17.5 µM (inactive) | 20.9 µM (inactive) | 16.7 µM (inactive)
13 | CC(C)SC(NC(=O)C1C(C)(C)CCC1(C)C)C(=O)O (centres undefined) | > 100 µM (inactive) | > 100 µM (inactive) | > 100 µM (inactive) | > 100 µM (inactive) | > 100 µM (inactive) | > 100 µM (inactive) | > 100 µM (inactive) | > 100 µM (inactive) | > 100 µM (inactive) | > 10 µM (inactive) | > 100 µM (inactive) | > 100 µM (inactive) | > 100 µM (inactive) | – | > 100 µM (inactive) | – | > 100 µM (inactive)
14 | Clc1ccc2nc3c(c(-c4ccccc4)nn3-c3ccccc3)c(-c3ccccc3)c2c1 | > 100 µM (inactive) | > 100 µM (inactive) | > 100 µM (inactive) | > 100 µM (inactive) | > 100 µM (inactive) | > 100 µM (inactive) | > 100 µM (inactive) | > 100 µM (inactive) | > 100 µM (inactive) | > 100 µM (inactive) | > 100 µM (inactive) | > 100 µM (inactive) | > 100 µM (inactive) | > 100 µM (inactive) | > 100 µM (inactive) | – | > 100 µM (inactive)
15 | CCC(=O)OCN1C(=O)C=CC1=O | 5.38 µM (inactive) | 0.445 µM (active) | 19.8 µM (inactive) | 7.19 µM (inactive) | 15.2 µM (inactive) | 18.4 µM (inactive) | 18.5 µM (inactive) | 18.3 µM (inactive) | 15.2 µM (inactive) | 2.3 µM (inactive) | 18.6 µM (inactive) | – | 17.1 µM (inactive) | > 44.7 µM (inactive) | 18.4 µM (inactive) | 9.06 µM (inactive) | 17 µM (inactive)
16 | CC[C@]1(Cc2ccc(OC)c(OC)c2)C=[N+]([O-])O[C@H](OC2CCCC2(c2ccccc2)c2ccccc2)[C@@H]1OC(C)=O (some centres undefined) | 1.6 µM (inactive) | 4.1 µM (inactive) | 5.89 µM (inactive) | 3.36 µM (inactive) | 3.21 µM (inactive) | 2.08 µM (inactive) | 2 µM (inactive) | 4.59 µM (inactive) | 2.41 µM (inactive) | 2.67 µM (inactive) | 5.4 µM (inactive) | – | 4.76 µM (inactive) | 4.92 µM (inactive) | 4.12 µM (inactive) | 4.61 µM (inactive) | 2.68 µM (inactive)
17 | N[C@H](C(=O)O)[C@@H]1CC(Br)=NO1 | 13 µM (inactive) | 14.1 µM (inactive) | 10.9 µM (inactive) | > 48.4 µM (inactive) | > 29.4 µM (inactive) | 19 µM (inactive) | > 100 µM (inactive) | 11.5 µM (inactive) | 19.7 µM (inactive) | 22.6 µM (inactive) | 4.31 µM (inactive) | – | 11.6 µM (inactive) | 6.28 µM (inactive) | 38.3 µM (inactive) | 54.2 µM (inactive) | 27.7 µM (inactive)
